Assay results as given in paper PMC11456916, “A screen for cell envelope stress uncovers an inhibitor of prolipoprotein diacylglyceryl transferase, Lgt, in Escherichiacoli” (iScience, 2024).

Tested on: 356 CRISPRi constructs in E. coli ΔtolC-pore
Assay: CRISPRi collection fitness screen with sub-inhibitory compound
Assay type: cell-based
Settings: for Growth represented as mean colony biomass: 1μg/ml MAC0452936, 6ng/ml LolCDE-in-1, 250 ng/ml Vancomycin, 7 ng/ml CHIR090, n=4; for Growth, mean colony biomass (n=4): + 1μg/ml MAC0452936
Method in brief: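 Mobile CRISPRi collection conjugated into the ΔtolC-pore strain and pinned on agar at 1536 density in technical quadruplicate with a sub-inhibitory MAC-0452936 concentration. No CRISPRi induction; only basal 5–10% knockdown.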

## COc1ccc(C(=O)O/N=C(\c2cccs2)C(C)(C)C)cc1 [MAC0452936]
gRNA accA
  Growth represented as mean colony biomass: 0.9619
gRNA aceF
  Growth, mean colony biomass (n=4): 1.536
gRNA alaS
  Growth, mean colony biomass (n=4): 1.17
gRNA argS
  Growth, mean colony biomass (n=4): 1.078
gRNA asnS
  Growth, mean colony biomass (n=4): 1.097
gRNA bamA
  Growth, mean colony biomass (n=4): 1.082
gRNA bamD
  Growth, mean colony biomass (n=4): 1.114
gRNA bioA
  Growth, mean colony biomass (n=4): 1.093
gRNA can
  Growth, mean colony biomass (n=4): 1.0791
gRNA cca
  Growth represented as mean colony biomass: 0.9631
gRNA coaA
  Growth represented as mean colony biomass: 0.9606
gRNA csrA
  Growth, mean colony biomass (n=4): 1.147
gRNA cydA
  Growth represented as mean colony biomass: 0.9568
gRNA cydX
  Growth represented as mean colony biomass: 0.9584
gRNA dapD
  Growth represented as mean colony biomass: 0.9537
gRNA dapE
  Growth represented as mean colony biomass: 0.9829
gRNA der
  Growth represented as mean colony biomass: 0.8304
gRNA dfp
  Growth represented as mean colony biomass: 0.9766
gRNA dnaC
  Growth, mean colony biomass (n=4): 1.0695
gRNA dnaE
  Growth represented as mean colony biomass: 0.9743
gRNA dnaN
  Growth represented as mean colony biomass: 0.9941
gRNA dnaX
  Growth represented as mean colony biomass: 0.9797
gRNA dut
  Growth, mean colony biomass (n=4): 1.096
gRNA eno
  Growth represented as mean colony biomass: 0.9696
gRNA era
  Growth represented as mean colony biomass: 0.9809
gRNA fabA
  Growth represented as mean colony biomass: 0.9981
gRNA fabG
  Growth represented as mean colony biomass: 0.9894
gRNA fabI
  Growth represented as mean colony biomass: 0.9716
gRNA fdx
  Growth represented as mean colony biomass: 0.9955
gRNA fldA
  Growth represented as mean colony biomass: 0.9924
gRNA folA
  Growth, mean colony biomass (n=4): 1.134
gRNA folB
  Growth represented as mean colony biomass: 0.9792
gRNA folC
  Growth, mean colony biomass (n=4): 1.076
gRNA folE
  Growth represented as mean colony biomass: 0.9726
gRNA folP
  Growth represented as mean colony biomass: 0.9946
gRNA frr
  Growth represented as mean colony biomass: 0.9805
gRNA ftsA
  Growth, mean colony biomass (n=4): 1.121
gRNA gapA
  Growth represented as mean colony biomass: 0.983
gRNA glmS
  Growth, mean colony biomass (n=4): 1.092
gRNA glmU
  Growth represented as mean colony biomass: 0.9808
gRNA gltX
  Growth represented as mean colony biomass: 0.9823
gRNA glyA
  Growth, mean colony biomass (n=4): 1.091
gRNA groS
  Growth represented as mean colony biomass: 0.9881
gRNA grpE
  Growth represented as mean colony biomass: 0.9656
gRNA guaA
  Growth represented as mean colony biomass: 0.9795
gRNA hemD
  Growth, mean colony biomass (n=4): 1.079
gRNA hemG
  Growth represented as mean colony biomass: 0.9986
gRNA hemH
  Growth represented as mean colony biomass: 1.001
gRNA hemL
  Growth represented as mean colony biomass: 0.9838
gRNA higA
  Growth represented as mean colony biomass: 0.9635
gRNA hisS
  Growth represented as mean colony biomass: 0.9859
gRNA holD
  Growth represented as mean colony biomass: 0.9764
gRNA hscA
  Growth represented as mean colony biomass: 0.9953
gRNA infA
  Growth, mean colony biomass (n=4): 1.088
gRNA infC
  Growth represented as mean colony biomass: 0.9986
gRNA iscU
  Growth represented as mean colony biomass: 0.9867
gRNA ispB
  Growth represented as mean colony biomass: 0.9983
gRNA ispF
  Growth represented as mean colony biomass: 0.9875
gRNA leuS
  Growth, mean colony biomass (n=4): 1.417
gRNA lexA
  Growth, mean colony biomass (n=4): 1.542
gRNA lolC
  Growth represented as mean colony biomass: 0.9579
gRNA lptA
  Growth, mean colony biomass (n=4): 1.476
gRNA lptB
  Growth, mean colony biomass (n=4): 1.32
gRNA lptC
  Growth represented as mean colony biomass: 0.9585
gRNA lptE
  Growth represented as mean colony biomass: 0.965
gRNA lptF
  Growth represented as mean colony biomass: 0.9902
gRNA lptG
  Growth represented as mean colony biomass: 0.9845
gRNA lpxC
  Growth represented as mean colony biomass: 0.9609
gRNA lpxD
  Growth represented as mean colony biomass: 0.9569
gRNA mnmA
  Growth, mean colony biomass (n=4): 1.086
gRNA mrdB
  Growth, mean colony biomass (n=4): 1.167
gRNA mreB
  Growth represented as mean colony biomass: 0.9936
gRNA mreC
  Growth represented as mean colony biomass: 0.9829
gRNA msbA
  Growth, mean colony biomass (n=4): 1.264
gRNA mukF
  Growth, mean colony biomass (n=4): 1.116
gRNA murB
  Growth represented as mean colony biomass: 0.9708
gRNA murC
  Growth represented as mean colony biomass: 0.97
gRNA murI
  Growth, mean colony biomass (n=4): 1.3051
gRNA nadK
  Growth, mean colony biomass (n=4): 1.081
gRNA nusB
  Growth represented as mean colony biomass: 0.9578
gRNA plsB
  Growth represented as mean colony biomass: 0.995
gRNA prmC
  Growth, mean colony biomass (n=4): 1.083
gRNA proS
  Growth represented as mean colony biomass: 0.9787
gRNA psd
  Growth, mean colony biomass (n=4): 1.711
gRNA pssA
  Growth, mean colony biomass (n=4): 1.089
gRNA ptsI
  Growth, mean colony biomass (n=4): 1.104
gRNA racR
  Growth represented as mean colony biomass: 0.9926
gRNA rho
  Growth, mean colony biomass (n=4): 1.226
gRNA ribA
  Growth represented as mean colony biomass: 0.9923
gRNA ribC
  Growth represented as mean colony biomass: 0.9978
gRNA ribD
  Growth, mean colony biomass (n=4): 1.096
gRNA ribF
  Growth represented as mean colony biomass: 0.9646
gRNA rimM
  Growth represented as mean colony biomass: 0.9609
gRNA rluD
  Growth represented as mean colony biomass: 0.9905
gRNA rne
  Growth, mean colony biomass (n=4): 1.098
gRNA rpe
  Growth represented as mean colony biomass: 0.9763
gRNA rplA
  Growth, mean colony biomass (n=4): 1.0727
gRNA rplD
  Growth represented as mean colony biomass: 0.8324
gRNA rplE
  Growth represented as mean colony biomass: 0.9904
gRNA rplJ
  Growth represented as mean colony biomass: 0.9775
gRNA rplO
  Growth represented as mean colony biomass: 0.9724
gRNA rplP
  Growth, mean colony biomass (n=4): 1.071
gRNA rplQ
  Growth represented as mean colony biomass: 0.9778
gRNA rplS
  Growth represented as mean colony biomass: 0.9888
gRNA rplV
  Growth, mean colony biomass (n=4): 1.1552
gRNA rplX
  Growth, mean colony biomass (n=4): 1.077
gRNA rplY
  Growth represented as mean colony biomass: 0.9853
gRNA rpmC
  Growth, mean colony biomass (n=4): 1.078
gRNA rpmH
  Growth represented as mean colony biomass: 0.9594
gRNA rpmI
  Growth represented as mean colony biomass: 1.001
gRNA rpoC
  Growth, mean colony biomass (n=4): 1.115
gRNA rpoE
  Growth, mean colony biomass (n=4): 1.071
gRNA rpoH
  Growth represented as mean colony biomass: 0.994
gRNA rpsC
  Growth, mean colony biomass (n=4): 1.101
gRNA rpsD
  Growth, mean colony biomass (n=4): 1.173
gRNA rpsE
  Growth represented as mean colony biomass: 0.8351
gRNA rpsF
  Growth represented as mean colony biomass: 0.9675
gRNA rpsG
  Growth, mean colony biomass (n=4): 1.126
gRNA rpsH
  Growth represented as mean colony biomass: 0.8152
gRNA rpsK
  Growth, mean colony biomass (n=4): 1.169
gRNA rpsL
  Growth, mean colony biomass (n=4): 1.132
gRNA rpsM
  Growth, mean colony biomass (n=4): 1.248
gRNA rpsR
  Growth, mean colony biomass (n=4): 1.124
gRNA rpsT
  Growth, mean colony biomass (n=4): 1.094
gRNA rsgA
  Growth represented as mean colony biomass: 0.8391
gRNA safA
  Growth represented as mean colony biomass: 0.9619
gRNA secA
  Growth, mean colony biomass (n=4): 1.102
gRNA secY
  Growth represented as mean colony biomass: 0.8296
gRNA serS
  Growth represented as mean colony biomass: 0.9537
gRNA ssb
  Growth represented as mean colony biomass: 0.8295
gRNA sucA
  Growth represented as mean colony biomass: 0.8419
gRNA suhB
  Growth, mean colony biomass (n=4): 1.09
gRNA tilS
  Growth represented as mean colony biomass: 0.9915
gRNA tonB
  Growth represented as mean colony biomass: 0.9615
gRNA trmD
  Growth represented as mean colony biomass: 0.9721
gRNA tsaB
  Growth represented as mean colony biomass: 0.9923
gRNA tsaD
  Growth represented as mean colony biomass: 0.966
gRNA tsaE
  Growth, mean colony biomass (n=4): 1.071
gRNA tsf
  Growth represented as mean colony biomass: 0.966
gRNA tusE
  Growth represented as mean colony biomass: 0.9697
gRNA tyrS
  Growth represented as mean colony biomass: 0.9746
gRNA ubiB
  Growth represented as mean colony biomass: 0.9956
gRNA ubiD
  Growth represented as mean colony biomass: 0.9717
gRNA waaA
  Growth, mean colony biomass (n=4): 1.073
gRNA ydaS
  Growth represented as mean colony biomass: 0.9729
gRNA ydcD
  Growth represented as mean colony biomass: 0.9759
gRNA ydhL
  Growth represented as mean colony biomass: 1
gRNA yedN
  Growth, mean colony biomass (n=4): 1.142
gRNA yejM
  Growth represented as mean colony biomass: 0.9938
gRNA yffS
  Growth represented as mean colony biomass: 0.9919
gRNA ygeF
  Growth represented as mean colony biomass: 0.966
gRNA ygeN
  Growth, mean colony biomass (n=4): 1.0865
gRNA yidC
  Growth represented as mean colony biomass: 0.8136
gRNA ymfE
  Growth represented as mean colony biomass: 0.9804
gRNA ymiB
  Growth represented as mean colony biomass: 0.9585
gRNA yqeL
  Growth, mean colony biomass (n=4): 1.316
gRNA yqgF
  Growth represented as mean colony biomass: 0.9701
gRNA zipA
  Growth, mean colony biomass (n=4): 1.803
